{"source": "patent US20230272370A1", "about": "“GENETICALLY ENCODED YEATS DOMAIN PROBE AND APPLICATIONS THEREOF” (THE UNIVERSITY OF HONG KONG, priority 2020, published 2023)", "key": {"AF9 protein": {"system": "AF9 protein", "assay": "FRAP of AF9-sfGFP in HEK 293T cells (chromatin binding of AF9)", "format": "cell-based, human", "description": "In one embodiment, fluorescence recovery after photobleaching (FRAP) may be used to analyze diffusion and binding of proteins in living cells. It has also been used to assess the cellular efficiency of bromodomain inhibitors in living cells.\nIn the FRAP experiments, the protein of interest is genetically tagged with a fluorescent protein (e.g., GFP) and expressed inside the cell. Then a portion of the fluorescent-tagged protein are photobleached by an intense laser pulse, and the fluorescence recovery of that photobleached region, which is caused by the migration of fluorescent-tagged proteins back into the bleached area, is monitored over time (FIG. 27a). A fluorescence recovery curve can be generated by plotting the fluorescence intensity with time, and the half time (t1/2), which is the time that the fluorescence intensity takes to recover to half, could also be calculated (FIG. 27b).\nSince AF9 protein was reported to associate with chromatin by its YEATS domain, we reasoned that the V3 inhibitor would reduce the binding of AF9 to chromatin and increase its mobility. To test this hypothesis, I fused sfGFP to the C-terminal of AF9 protein and replaced the C-terminal sfGFP of V3-NLS and V3C-NLS to a red fluorescence mCherry protein to avoid fluorescence overlap in FRAP experiments. […]\nHEK 293T cells were seeded in 3.5 cm confocal dish at a density of 4-6×10^5 cells per well in 2 mL complete growth medium and let them reach 60-80% confluency at the time of transfection. […] An argon laser (488 nm) was used for photobleaching and fluorescence imaging of sfGFP. The detector was set to detect fluorescence between 500 and 550 nm. […] Fluorescence recovery of sfGFP was monitored by a time series imaging.\nThe average fluorescence intensity was measured for three regions at each imaging time point, a bleached region (Fbl), a non-bleached reference region (Fref) to correct for the FRAP curve for photofading caused by imaging, the location of reference region should be as far apart as possible from the bleached region. […]"}, "AF9 YEATS domain": {"target": "T1, AF9 YEATS domain (Homo sapiens, UniProt P42568)", "T1 sequence (P42568 1-138 limits assumed)": "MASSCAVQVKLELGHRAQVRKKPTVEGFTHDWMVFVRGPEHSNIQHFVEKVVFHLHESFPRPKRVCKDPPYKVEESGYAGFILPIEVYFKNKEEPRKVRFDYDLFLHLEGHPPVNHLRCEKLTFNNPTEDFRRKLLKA", "assay": "Isothermal titration calorimetry (ITC) with AF9 YEATS domain", "format": "binding", "conditions": "25° C.", "procedure": "Next, I tested whether V3 protein could bind to the YEATS domains and act as a YEATS domain inhibitor. Isothermal titration calorimetry (ITC) was performed to determine the dissociation constant (Kd) between V3 and all four YEATS domain-containing proteins in humans (i.e. AF9, ENL, Gas41, and YEATS2).\nITC was first performed with V3 protein and the AF9 YEATS domain.\nExperiments were conducted at 25° C. on a MicroCal PEAQ-ITC titration calorimeter (MicroCal). The buffer for the titration is (150 mM NaCl, 50 mM HEPES, 1 mM TCEP, pH 7.5). Proteins were dialyzed to the titration buffer for overnight before the experiment. The reaction cell contained 200 μL of 30 μM YEATS domain proteins, which was titrated with 300 μM V3 or V3C proteins (10-fold higher than the YEATS domain protein concentration used). The titration contained 20 injections, first 0.5 μL, and all subsequent injections of 2 μL. The binding isotherm was fit with MicroCal PEAQ-ITC analysis software, using a single set of independent sites to determine the thermodynamic dissociation constants and stoichiometry."}, "AF9 YEATS domain (human)": {"target": "AF9 YEATS domain (human) (UniProt P42568)", "assay": "ITC, 25° C., 300 µM V3 titrated into 30 µM AF9 YEATS domain"}, "CobB": {"target": "T2, CobB (Escherichia coli, UniProt P75960)", "T2 construct": "endogenous in cells; host or cells: E. coli DH10B", "T2 sequence (P75960 whole entry)": "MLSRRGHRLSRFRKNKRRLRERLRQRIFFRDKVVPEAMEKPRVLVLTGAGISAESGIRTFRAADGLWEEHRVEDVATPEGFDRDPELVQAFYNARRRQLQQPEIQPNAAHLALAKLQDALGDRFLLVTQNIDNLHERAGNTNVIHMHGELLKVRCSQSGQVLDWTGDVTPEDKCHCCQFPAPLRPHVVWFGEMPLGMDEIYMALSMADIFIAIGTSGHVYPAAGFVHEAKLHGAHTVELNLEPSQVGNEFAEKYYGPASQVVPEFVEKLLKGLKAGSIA", "assay": "ESI-MS of V3 expressed in E. coli with NAM (CobB deacylation)", "format": "cell-based", "procedure": "Since nicotinamide (NAM) is a known inhibitor of the sirtuin family of enzymes, I expressed V3 in the presence of 20 mM NAM.\nHowever, the V3 protein expression level was severely attenuated in the presence of 20 mM NAM (data not shown). Therefore, I attempted several lower NAM concentrations and assessed the purified V3 protein using ESI-MS. […] Thus, 10 mM NAM was added to the culture medium for the subsequent expression of V3 in E. coli.\nDH10B cells harboring pEVOL-KfuRS and pBad-V3-2 plasmid were cultured in LB plus corresponding antibiotics. Protein expression was induced by adding 0.2% arabinose, 10 mM NAM, and 1 mM Kfu when O.D. 600 reached 0.4. After expression at 37° C. for 20 h, cells were harvested and washed with PBS. Protein purification was the same as sfGFP150Kfu except that 10 mM NAM was added to lysis buffer to prevent CobB deacylation. V3C was expressed and purified the same as V3."}, "V3-GAL4/AF9-VP64 complex": {"target": "T3, V3-GAL4/AF9-VP64 complex (Homo sapiens, UniProt P42568)", "T3 construct": "expressed in transfected cells; host or cells: HEK 293T", "T3 sequence (P42568 1-568)": "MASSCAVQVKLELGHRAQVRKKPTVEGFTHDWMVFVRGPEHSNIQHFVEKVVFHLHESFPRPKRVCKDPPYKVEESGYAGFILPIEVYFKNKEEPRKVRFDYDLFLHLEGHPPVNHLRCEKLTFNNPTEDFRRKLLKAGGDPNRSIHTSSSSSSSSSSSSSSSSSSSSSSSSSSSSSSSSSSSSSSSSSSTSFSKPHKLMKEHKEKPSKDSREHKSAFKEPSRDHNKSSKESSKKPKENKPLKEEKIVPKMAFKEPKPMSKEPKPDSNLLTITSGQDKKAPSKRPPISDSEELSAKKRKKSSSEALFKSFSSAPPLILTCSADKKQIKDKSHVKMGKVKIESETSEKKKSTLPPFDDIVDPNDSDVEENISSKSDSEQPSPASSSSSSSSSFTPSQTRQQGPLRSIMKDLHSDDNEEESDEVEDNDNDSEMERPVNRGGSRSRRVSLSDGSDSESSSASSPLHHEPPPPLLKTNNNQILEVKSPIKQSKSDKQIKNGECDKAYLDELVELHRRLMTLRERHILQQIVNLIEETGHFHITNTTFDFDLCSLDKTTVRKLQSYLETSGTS", "assay": "Luciferase-based two-hybrid assay (V3-GAL4 bait, AF9-VP64 prey)", "format": "cell-based", "conditions": "V3-GAL4 bait with AF9-VP64 prey, normalized to V3C-GAL4", "procedure": "FIG. 34A-34D Luciferase-based two hybrid assay. (A) Schematic of the Luciferase-based two hybrid assay. (B) Schematic showing V3-GAL4 and V3C-GAL4 fusion proteins. (C) Immunoblotting analysis the expression of V3-GAL4 and V3C-GAL4 in the presence or absence of 1 mM Kfu in HEK 293T cells. (D) Relative luciferase signal of V3-GAL4 or V3C-GAL4 ‘bait’ in the presence of AF9-VP64 ‘prey’ protein, and with the addition of different concentrations of iMLLT. The luminescence of all the samples was normalized to the V3C-GAL4 sample. Error bars represent SEM from three biological replicates.\nTo solve the problems in current cell-based methods, as well as develop a robust cell-based technology for the in vivo screening and validation of YEATS domain inhibitors. We sought out to take advantage of the well-developed luciferase-based two-hybrid assay. In the two-hybrid assay, the genetically encoded YEATS domain probe was fused with a GAL4 DNA binding domain and served as ‘bait’, while a transcription activation domain (VP64) was linked to AF9 protein and acted as ‘prey’ (FIG. 34a, b, c). […]"}}, "note": "No end group written: not given here.", "data": [{"molecule": "V3-NLS (mCherry): V3-NLS with C-terminal sfGFP replaced by red fluorescence mCherry protein (KQTARKSTGGHHHHHHKRPAATKKAGQAKKKKL; also: C-terminal mCherry fusion (carrier not in chain))", "values": [{"measurement": "half recovery time (t1/2) of AF9-sfGFP", "setting": "AF9 protein; inhibitor co-expressed, 2.5 μM SAHA added to all groups, no inhibitor control 4.7±0.2 s", "result": "3.1 ± 0.2", "unit": "s"}]}, {"molecule": "V3C: control inhibitor: H3 (4-13) with a normal lysine at the H3 K9 site fused to N-terminal of sfGFP (KQTARKSTGG; also: C-terminus fused to sfGFP)", "values": [{"measurement": "dissociation constant (Kd)", "setting": "AF9 YEATS domain", "result": "no detectable binding"}]}, {"molecule": "V3 protein (genetically encoded YEATS domain inhibitor V3; histone H3 (4-13) with 2-furancarbonyl lysine at K9 fused to sfGFP and 6×His tag) (designed binder)", "values": [{"measurement": "Kd", "setting": "AF9 YEATS domain (human)", "result": 2350, "unit": "nM"}]}, {"molecule": "O=C(CCCCCCC(=O)Nc1ccccc1)NO", "note": "[SAHA, suberoylanilide hydroxamic acid]", "values": [{"measurement": "half recovery time (t1/2) of AF9-sfGFP", "setting": "AF9 protein; SAHA 2.5 μM for 18 hours before FRAP, untreated 2.5±0.1 seconds", "result": "4.7 ± 0.2", "unit": "s"}, {"measurement": "final fluorescence (fluorescence at plateau), of the initial intensity", "setting": "AF9 protein; SAHA-treated cells, untreated 90%", "result": 75, "unit": "%"}]}, {"molecule": "NC(=O)c1cccnc1", "note": "[NAM, nicotinamide]", "values": [{"measurement": "inhibition of the deacylation activity of CobB", "setting": "CobB; 10 mM NAM", "result": "sufficient to inhibit"}, {"measurement": "inhibition of the deacylation activity of CobB", "setting": "CobB; 20 mM NAM", "result": "completely inhibits"}]}, {"molecule": "V3-GAL4: genetically encoded YEATS domain probe fused with a GAL4 DNA binding domain, 'bait' (protein) KQTARKSTGGMKLLSSIEQACDICRLKKLKCSKEKPKCAKCLKNNWECRYSPKTKRSPLTRAHLTEVESRLERLEQLFLLIFPREDLDMILKMDSLQDIKALLTGLFVQDNVNKDAVTDRLASVETDMPLTLRQHRISATSSSEESSNKGQRQLTVS", "values": [{"measurement": "activation level of luciferase", "setting": "V3-GAL4/AF9-VP64 complex", "result": "around 20 folds"}]}]}
